This note sets out measurements from US10168342B2, “Lipid probes and uses thereof” (THE SCRIPPS RESEARCH INSTITUTE, priority 2015, dated 2019).

Like-named read-outs stand apart in the source and are kept apart here.

The target of experiment [1] is T1, AEA-DA lipid probe targets in Neuro2a cells (Mus musculus, UniProt G5E829).
T1 sequence (G5E829 1-1220): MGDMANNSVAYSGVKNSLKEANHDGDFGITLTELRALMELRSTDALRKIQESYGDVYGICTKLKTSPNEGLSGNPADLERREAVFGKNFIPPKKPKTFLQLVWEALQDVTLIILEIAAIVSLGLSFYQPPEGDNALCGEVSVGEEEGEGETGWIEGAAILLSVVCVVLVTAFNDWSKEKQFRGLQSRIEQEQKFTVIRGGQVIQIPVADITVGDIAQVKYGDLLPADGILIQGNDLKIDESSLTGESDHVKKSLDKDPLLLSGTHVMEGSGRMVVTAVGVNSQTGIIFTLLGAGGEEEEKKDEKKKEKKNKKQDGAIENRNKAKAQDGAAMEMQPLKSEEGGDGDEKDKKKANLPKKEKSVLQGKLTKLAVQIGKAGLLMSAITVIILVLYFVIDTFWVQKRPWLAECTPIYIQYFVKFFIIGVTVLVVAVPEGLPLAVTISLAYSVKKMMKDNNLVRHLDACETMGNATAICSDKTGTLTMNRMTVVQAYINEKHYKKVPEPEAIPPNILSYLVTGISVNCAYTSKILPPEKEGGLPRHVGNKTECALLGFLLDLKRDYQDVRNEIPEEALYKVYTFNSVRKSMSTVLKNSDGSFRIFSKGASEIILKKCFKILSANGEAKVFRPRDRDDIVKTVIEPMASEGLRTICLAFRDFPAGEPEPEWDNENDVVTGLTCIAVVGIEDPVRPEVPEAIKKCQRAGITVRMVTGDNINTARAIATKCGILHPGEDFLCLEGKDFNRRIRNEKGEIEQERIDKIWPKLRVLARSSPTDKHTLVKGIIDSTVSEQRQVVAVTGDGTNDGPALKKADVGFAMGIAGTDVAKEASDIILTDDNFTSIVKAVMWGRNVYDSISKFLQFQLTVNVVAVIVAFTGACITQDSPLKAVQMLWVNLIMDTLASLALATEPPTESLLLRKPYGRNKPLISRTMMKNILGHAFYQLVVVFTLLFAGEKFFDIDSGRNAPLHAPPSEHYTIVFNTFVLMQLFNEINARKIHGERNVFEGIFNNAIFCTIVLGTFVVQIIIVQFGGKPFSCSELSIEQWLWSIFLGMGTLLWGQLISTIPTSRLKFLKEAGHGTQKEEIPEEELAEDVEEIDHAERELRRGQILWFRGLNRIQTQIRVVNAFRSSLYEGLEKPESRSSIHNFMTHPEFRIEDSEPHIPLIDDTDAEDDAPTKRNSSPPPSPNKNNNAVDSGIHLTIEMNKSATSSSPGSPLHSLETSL

In experiment [2] the target is AEA-DA lipid probe targets in Neuro2a cells (Mus musculus, UniProt P20029).
Experiment [3] concerns the target AEA-DA lipid probe targets in Neuro2a cells (Mus musculus, UniProt P52293).
Experiment [4] has as its target T2, AEA-DA lipid probe targets in Neuro2a cells (Mus musculus, UniProt Q8VCB1).
T2 sequence (Q8VCB1 1-673): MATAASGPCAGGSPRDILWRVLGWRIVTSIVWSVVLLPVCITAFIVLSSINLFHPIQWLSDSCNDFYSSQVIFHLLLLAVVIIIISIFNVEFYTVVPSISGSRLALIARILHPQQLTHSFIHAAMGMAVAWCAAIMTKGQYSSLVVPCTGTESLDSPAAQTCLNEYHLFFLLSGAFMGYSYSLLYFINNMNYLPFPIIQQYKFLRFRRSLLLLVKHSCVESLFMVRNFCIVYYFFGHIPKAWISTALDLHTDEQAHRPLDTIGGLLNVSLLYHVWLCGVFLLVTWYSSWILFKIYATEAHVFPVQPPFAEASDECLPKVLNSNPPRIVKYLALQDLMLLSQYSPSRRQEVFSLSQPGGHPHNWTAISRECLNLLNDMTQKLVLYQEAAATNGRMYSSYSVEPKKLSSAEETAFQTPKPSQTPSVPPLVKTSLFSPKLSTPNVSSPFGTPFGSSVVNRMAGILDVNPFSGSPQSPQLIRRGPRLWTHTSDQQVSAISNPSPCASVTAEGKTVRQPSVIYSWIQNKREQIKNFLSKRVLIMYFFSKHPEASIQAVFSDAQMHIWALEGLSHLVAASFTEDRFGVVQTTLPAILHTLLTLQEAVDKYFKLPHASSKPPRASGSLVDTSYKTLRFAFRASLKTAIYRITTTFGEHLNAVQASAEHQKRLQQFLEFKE
The conditions noted are these: for SILAC ratio, TMEM48 (Q8VCB1): Neuro2a cells, AEA-DA probe.

The target of experiment [5] is T3, AEA-DA lipid probe targets in Neuro2a cells (Mus musculus, UniProt Q924Z4).
T3 sequence (Q924Z4 1-380): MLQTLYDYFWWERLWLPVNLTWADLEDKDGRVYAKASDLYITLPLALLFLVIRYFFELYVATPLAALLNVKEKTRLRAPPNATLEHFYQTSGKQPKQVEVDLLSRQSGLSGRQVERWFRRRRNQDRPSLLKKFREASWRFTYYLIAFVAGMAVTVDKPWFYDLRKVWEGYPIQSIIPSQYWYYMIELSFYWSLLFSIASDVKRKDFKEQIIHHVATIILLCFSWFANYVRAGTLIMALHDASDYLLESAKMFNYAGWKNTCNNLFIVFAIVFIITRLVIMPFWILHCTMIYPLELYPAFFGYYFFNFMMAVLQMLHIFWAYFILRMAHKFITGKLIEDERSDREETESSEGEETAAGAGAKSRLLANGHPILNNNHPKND
The conditions noted are these: for SILAC ratio, CERS2 (Q924Z4): Neuro2a cells, AEA-DA probe.

Experiment [6] addresses T4, AEA-DA lipid probe targets in Neuro2a cells (Mus musculus, UniProt Q99JY4).
T4 sequence (Q99JY4 1-376): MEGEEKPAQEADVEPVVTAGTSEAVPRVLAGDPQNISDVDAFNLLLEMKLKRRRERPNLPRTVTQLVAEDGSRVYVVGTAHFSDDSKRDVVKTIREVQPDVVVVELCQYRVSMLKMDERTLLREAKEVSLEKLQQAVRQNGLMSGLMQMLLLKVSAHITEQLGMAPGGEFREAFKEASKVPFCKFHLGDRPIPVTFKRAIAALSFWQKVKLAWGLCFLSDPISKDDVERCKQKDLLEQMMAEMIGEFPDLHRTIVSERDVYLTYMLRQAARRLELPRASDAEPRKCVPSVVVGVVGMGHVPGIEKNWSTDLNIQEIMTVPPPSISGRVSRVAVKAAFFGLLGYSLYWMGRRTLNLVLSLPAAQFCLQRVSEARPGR
The conditions noted are these: for SILAC ratio, TRABD (Q99JY4): Neuro2a cells, AEA-DA probe.

Sequence of AEA-DA lipid probe targets in Neuro2a cells (Mus musculus, UniProt P20029) (P20029 20-655): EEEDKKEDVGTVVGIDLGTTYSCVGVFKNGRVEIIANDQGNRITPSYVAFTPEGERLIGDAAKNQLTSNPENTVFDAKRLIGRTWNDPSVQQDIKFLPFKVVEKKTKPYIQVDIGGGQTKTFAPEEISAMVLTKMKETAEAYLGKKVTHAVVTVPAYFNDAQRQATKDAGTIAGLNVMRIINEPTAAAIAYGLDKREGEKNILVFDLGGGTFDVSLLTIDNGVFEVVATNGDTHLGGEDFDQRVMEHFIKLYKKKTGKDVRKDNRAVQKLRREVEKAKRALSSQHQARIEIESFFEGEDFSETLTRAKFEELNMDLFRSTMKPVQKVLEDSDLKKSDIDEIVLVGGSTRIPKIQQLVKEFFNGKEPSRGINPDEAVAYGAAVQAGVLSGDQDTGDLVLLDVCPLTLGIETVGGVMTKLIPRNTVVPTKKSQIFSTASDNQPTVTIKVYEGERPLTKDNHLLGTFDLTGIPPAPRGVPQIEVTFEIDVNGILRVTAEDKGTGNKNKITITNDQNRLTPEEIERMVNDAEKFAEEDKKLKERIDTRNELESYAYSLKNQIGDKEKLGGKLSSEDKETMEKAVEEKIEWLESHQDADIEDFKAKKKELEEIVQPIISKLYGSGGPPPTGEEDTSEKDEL

`CCCCC/C=C\C/C=C\C/C=C\C/C=C\CCCC(=O)NCCO` [AEA, anandamide, reference compound]: the “SILAC ratio Atp2b1” value in experiment [1] (competitor 200 μM) came out at 1.6. Also, in experiment [2] (competitor 200 μM), the “SILAC ratio Hspa5” value turned out to be 1.2. Further, the “SILAC ratio Kpna2” value in experiment [3] (competitor 200 μM) amounted to 1.5. Besides, in experiment [4] (competitor 200 μM), the “SILAC ratio, TMEM48 (Q8VCB1)” value came out at 1.9 and the “SILAC ratio, Tmem48” value came out at 1.9. Besides, in experiment [5] (competitor 200 μM), the “SILAC ratio, CERS2 (Q924Z4)” value amounted to 2.4 and the “SILAC ratio, Cers2” value was 2.4. In experiment [6] (competitor 200 μM), the “SILAC ratio, TRABD (Q99JY4)” value was determined as 1.0 and the “SILAC ratio, Trabd” value is 1.0.
As for `C=CCN(C)CCCCCCOc1ccc(C(=O)c2ccc(Br)cc2)c(F)c1` [Ro 48-8071, reference compound], the “SILAC ratio Atp2b1” value in experiment [1] (competitor 25 μM) was 1.1. Further, the “SILAC ratio Hspa5” value in experiment [2] (competitor 25 μM) amounted to 0.9. Also, in experiment [3] (competitor 25 μM), the “SILAC ratio Kpna2” value amounted to 0.9. Moreover, in experiment [4] (competitor 25 μM), the “SILAC ratio, TMEM48 (Q8VCB1)” value is 1.1 and the “SILAC ratio, Tmem48” value was determined as 1.1. Moreover, in experiment [5] (competitor 25 μM), the “SILAC ratio, CERS2 (Q924Z4)” value turned out to be 1.6 and the “SILAC ratio, Cers2” value is on record as 1.6. In experiment [6] (competitor 25 μM), the “SILAC ratio, TRABD (Q99JY4)” value was found to be 1.0 and the “SILAC ratio, Trabd” value amounted to 1.0.
Regarding `CN1CCN(C(=O)c2c(-c3ccccc3)c3cc([N+](=O)[O-])ccc3n2C)CC1` [KML110, (1-Methyl-5-nitro-3-phenyl-1H-indol-2-yl)(4-methylpiperazin-1-yl)methanone], the “SILAC ratio Atp2b1” value in experiment [1] (competitor 25 μM) turned out to be 1.8. In addition, the “SILAC ratio Hspa5” value in experiment [2] (competitor 25 μM) was found to be 1.4. For the same molecule, the “SILAC ratio Kpna2” value in experiment [3] (competitor 25 μM) is recorded as 1.2. Also, the “SILAC ratio, Tmem48” value in experiment [4] (competitor 25 μM) was 1.6. In experiment [5] (competitor 25 μM), the “SILAC ratio, Cers2” value is on record as 2.2. Besides, in experiment [6] (competitor 25 μM), the “SILAC ratio, Trabd” value is 1.5.
Turning to `O=C(/C=C/c1cccnc1)NCCCCC1CCN(C(=O)c2ccccc2)CC1` [FK-866, reference compound], in experiment [1] (competitor 25 μM), the “SILAC ratio Atp2b1” value came out at 1.2. Moreover, the “SILAC ratio Hspa5” value in experiment [2] (competitor 25 μM) is listed as 1.2. Also, in experiment [3] (competitor 25 μM), the “SILAC ratio Kpna2” value is given as 1.2. For the same molecule, in experiment [4] (competitor 25 μM), the “SILAC ratio, TMEM48 (Q8VCB1)” value is 1.2 and the “SILAC ratio, Tmem48” value was 1.2. Further, in experiment [5] (competitor 25 μM), the “SILAC ratio, CERS2 (Q924Z4)” value was 1.2 and the “SILAC ratio, Cers2” value is 1.2. For the same molecule, in experiment [6] (competitor 25 μM), the “SILAC ratio, TRABD (Q99JY4)” value worked out at 1.2 and the “SILAC ratio, Trabd” value was 1.2.
As to `CN1CCN(C(=O)c2[nH]c3ccc([N+](=O)[O-])cc3c2-c2ccccc2)CC1` [MJN228, (4-Methylpiperazin-1-yl)(5-nitro-3-phenyl-1H-indol-2-yl)methanone], the “SILAC ratio Atp2b1” value is 1.1 in experiment [1] (competitor 10 μM), 1.4 in experiment [1] (competitor 25 μM), 1.4 in experiment [1] (competitor 50 μM) and 1.7 in experiment [1] (competitor 100 μM). Also, the “SILAC ratio Hspa5” value in experiment [2] (competitor 10 μM) is on record as 1.4; in experiment [2] (competitor 25 μM), 1.4; in experiment [2] (competitor 50 μM), 1.4; in experiment [2] (competitor 100 μM), 1.5. Also, the “SILAC ratio Kpna2” value in experiment [3] (competitor 10 μM) is recorded as 1.3; in experiment [3] (competitor 25 μM), 1.2; in experiment [3] (competitor 50 μM), 0.9; in experiment [3] (competitor 100 μM), 1.3. Also, in experiment [4] (competitor 25 μM), the “SILAC ratio, TMEM48 (Q8VCB1)” value worked out at 1.5. For the same molecule, the “SILAC ratio, Tmem48” value turned out to be 1.3 in experiment [4] (competitor 10 μM), 1.5 in experiment [4] (competitor 25 μM), 1.9 in experiment [4] (competitor 50 μM) and 2.8 in experiment [4] (competitor 100 μM). Further, the “SILAC ratio, CERS2 (Q924Z4)” value in experiment [5] (competitor 25 μM) turned out to be 3.1. Also, the “SILAC ratio, Cers2” value in experiment [5] (competitor 10 μM) is listed as 2.0; in experiment [5] (competitor 25 μM) it was 3.1; in experiment [5] (competitor 50 μM) it was 5.2; in experiment [5] (competitor 100 μM), 6.8. Also, in experiment [6] (competitor 25 μM), the “SILAC ratio, TRABD (Q99JY4)” value was 1.3. Besides, the “SILAC ratio, Trabd” value worked out at 1.1 in experiment [6] (competitor 10 μM), 1.3 in experiment [6] (competitor 25 μM), 1.4 in experiment [6] (competitor 50 μM) and 1.7 in experiment [6] (competitor 100 μM).
